Data as given in article PMC11864979, “First-in-class ultralong-target-residence-time p38α inhibitors as a mitosis-targeted therapy for colorectal cancer” (Nature Cancer, 2025).
Several values for one entry are separate records, joined by “and”; a condition that tells them apart may be missing. Equal entries are not always repeated.

Test: weight development of treated mice
Assay type: in vivo, mouse
Procedure: No mice were excluded during treatment studies. […] GFP imaging of tumors was performed using a Hamamatsu imaging system. For quantification of compounds in the murine plasma, 20 μl of tail-vein blood was diluted with 80 μl of heparin solution, before 200 μl of ice-cold acetonitrile with a defined internal standard was added. The samples were sonicated and centrifuged and the supernatant was subjected to liquid chromatography-mass spectrometry quantification. Full blood analyses were performed with the Sysmex KX-21N hematology analyzer.

In the case of `CNC(=O)c1ccc2c(c1)C(=O)c1ccc(Nc3ccc(F)c(NC(=O)C4CC4)c3)cc1CC2` [Compound 2015], the “Weight development (%)” value (day 12) was 100.0% and 97.9% and 100.9% and 99.3% and 97.1%, the “Weight development (%)” value (day 14) was 100.9% and 97.9% and 97.4% and 99.6% and 101.1% and 98.2% and 100.0% and the “Weight development (%)” value (day 16) was 102.6% and 98.7% and 97.0% and 100.9% and 101.1% and 99.3%. For the same compound, the “Weight development (%)” value (day 18) was 103.8% and 98.7% and 97.4% and 101.3% and 100.7% and 100.0% and 101.8%, the “Weight development (%)” value (day 20) was 102.6% and 98.7% and 97.9% and 101.3% and 100.4% and 100.0% and the “Weight development (%)” value (day 22) was 106.4% and 100.4% and 98.7% and 100.0% and 103.3% and 101.1% and 101.4%. The “Weight development (%)” value (day 24) was 105.1% and 103.0% and 100.0% and 101.8% and 100.4% and 101.1%, the “Weight development (%)” value (day 26) was 106.4% and 100.8% and 101.7% and 102.2% and 101.5% and 100.4% and 101.1% and the “Weight development (%)” value (day 28) was 106.8% and 103.4% and 100.9% and 101.3% and 103.7% and 100.7% and 101.1%. The “Weight development (%)” value (day 30) was 110.3% and 105.1% and 101.7% and 105.3% and 101.5% and 100.7% and 101.1%, the “Weight development (%)” value (day 32) was 106.0% and 105.5% and 102.6% and 102.2% and 102.9% and 101.4% and the “Weight development (%)” value (day 34) was 106.8% and 104.7% and 100.9% and 103.5% and 106.2% and 101.1% and 100.4%. For the same compound, the “Weight development (%)” value (day 36) was 108.1% and 103.8% and 103.9% and 105.7% and 107.0% and 99.6% and 100.0%, the “Weight development (%)” value (day 38) was 109.8% and 107.2% and 103.0% and 106.1% and 109.9% and 100.7% and 101.4% and the “Weight development (%)” value (day 40) was 110.3% and 103.4% and 103.0% and 106.6% and 100.7% and 99.3%. For the same compound, the “Weight development (%)” value (day 42) was 109.4% and 106.4% and the “body weight over time (in words)” value (mouse, in vivo) was “did not lose body weight”.
